IC50 and Ki data for 18 compounds are collected here from ChEMBL document CHEMBL1909046, “DrugMatrix in vitro pharmacology data”.

Test [1] can be described thus: DRUGMATRIX: Interleukin IL-1 radioligand binding (ligand: [125I] interleukin 1beta). Type of test: cell membranes, Membrane. To be noted: nih3t3; Not Active = under 50% inhibition at 10 µM.
The target in test [2] is Melanocortin receptor 5 (Homo sapiens, UniProt P33032). Type of test: cell membranes, HEK293, Membrane. The note with it: hek293. Also: in other assays of this panel Not Active means under 50% inhibition at 10 µM.
Melanocortin receptor 5, sequence (P33032 whole entry): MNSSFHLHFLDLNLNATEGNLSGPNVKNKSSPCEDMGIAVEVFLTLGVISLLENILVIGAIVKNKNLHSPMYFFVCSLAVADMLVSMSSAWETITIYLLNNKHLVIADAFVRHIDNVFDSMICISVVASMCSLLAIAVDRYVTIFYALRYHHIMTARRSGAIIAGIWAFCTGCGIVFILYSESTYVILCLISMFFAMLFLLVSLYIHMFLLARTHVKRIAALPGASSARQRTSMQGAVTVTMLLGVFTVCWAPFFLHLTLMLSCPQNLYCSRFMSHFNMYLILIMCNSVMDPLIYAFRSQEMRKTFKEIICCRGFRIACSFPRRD
A short description of test [3]: DRUGMATRIX: Phosphodiesterase PDE3 enzyme inhibition (substrate: [3H]cAMP + cAMP). In kind it is tissue-based, Homo sapiens. The note with it: platelet; Not Active = under 50% inhibition at 10 µM.
Test [4] concerns the target T1, C-X-C chemokine receptor type 1 (Homo sapiens, UniProt P25024). Also: in other assays of this panel Not Active means under 50% inhibition at 10 µM.
T1 sequence (P25024 whole entry): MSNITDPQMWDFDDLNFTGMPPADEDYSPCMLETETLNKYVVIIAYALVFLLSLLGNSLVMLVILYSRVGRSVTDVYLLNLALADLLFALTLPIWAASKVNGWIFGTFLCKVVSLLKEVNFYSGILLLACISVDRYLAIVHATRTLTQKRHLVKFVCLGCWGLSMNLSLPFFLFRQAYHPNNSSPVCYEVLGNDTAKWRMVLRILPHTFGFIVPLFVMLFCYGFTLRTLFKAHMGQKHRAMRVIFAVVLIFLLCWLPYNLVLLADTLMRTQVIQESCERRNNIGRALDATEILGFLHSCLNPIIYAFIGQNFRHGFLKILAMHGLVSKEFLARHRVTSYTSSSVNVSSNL

Test [5] has as its target T2, C-X-C chemokine receptor type 2 (Homo sapiens, UniProt P25025). Also: in other assays of this panel Not Active means under 50% inhibition at 10 µM.
T2 sequence (P25025 whole entry): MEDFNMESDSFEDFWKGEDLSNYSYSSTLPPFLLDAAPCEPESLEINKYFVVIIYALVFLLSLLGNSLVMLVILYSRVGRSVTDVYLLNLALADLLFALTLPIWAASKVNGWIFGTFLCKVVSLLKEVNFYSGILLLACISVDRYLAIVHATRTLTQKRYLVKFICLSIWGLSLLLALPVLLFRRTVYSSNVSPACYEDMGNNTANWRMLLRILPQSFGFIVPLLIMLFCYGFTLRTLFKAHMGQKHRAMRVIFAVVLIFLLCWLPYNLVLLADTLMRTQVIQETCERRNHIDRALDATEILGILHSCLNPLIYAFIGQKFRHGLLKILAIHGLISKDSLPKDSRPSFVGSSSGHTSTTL
In kind it is cell membranes, CHO-K1, Membrane.

Test [6] concerns the target T3, B2 bradykinin receptor (Homo sapiens, UniProt P30411). Also: in other assays of this panel Not Active means under 50% inhibition at 10 µM.
T3 sequence (P30411 whole entry): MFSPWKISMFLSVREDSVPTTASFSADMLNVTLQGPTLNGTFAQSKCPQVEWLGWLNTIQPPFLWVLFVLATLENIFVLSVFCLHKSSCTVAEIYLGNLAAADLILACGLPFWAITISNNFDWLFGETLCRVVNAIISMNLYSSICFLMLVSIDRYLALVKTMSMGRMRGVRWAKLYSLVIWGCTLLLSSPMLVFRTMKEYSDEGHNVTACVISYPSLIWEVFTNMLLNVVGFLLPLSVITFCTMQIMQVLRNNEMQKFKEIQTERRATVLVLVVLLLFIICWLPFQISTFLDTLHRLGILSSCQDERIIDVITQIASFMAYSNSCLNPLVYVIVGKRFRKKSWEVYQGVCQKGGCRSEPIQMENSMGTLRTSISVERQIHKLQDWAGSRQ
In kind it is cell membranes, Membrane. To be noted: chem-1.

Test [7] addresses T4, Caspase-1 (Homo sapiens, UniProt P29466).
T4 sequence (P29466 whole entry): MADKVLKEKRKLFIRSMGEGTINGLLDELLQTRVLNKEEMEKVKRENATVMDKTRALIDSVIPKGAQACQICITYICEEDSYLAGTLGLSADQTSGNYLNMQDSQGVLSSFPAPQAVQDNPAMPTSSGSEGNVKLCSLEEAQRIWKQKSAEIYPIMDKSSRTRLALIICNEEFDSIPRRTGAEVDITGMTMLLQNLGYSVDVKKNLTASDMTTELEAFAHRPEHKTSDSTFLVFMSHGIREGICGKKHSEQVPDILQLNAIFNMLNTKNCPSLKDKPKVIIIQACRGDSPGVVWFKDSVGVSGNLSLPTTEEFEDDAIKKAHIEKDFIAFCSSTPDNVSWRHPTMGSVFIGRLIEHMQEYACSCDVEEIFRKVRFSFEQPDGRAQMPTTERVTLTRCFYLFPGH
Also noted: species or system Escherichia coli.

Broadly, the IC50 is the midpoint of a concentration-inhibition curve. As usually defined, the Ki is the dissociation constant of the complex between target and ligand, obtained from inhibition or displacement.

With `C#C[C@]1(O)CC[C@H]2[C@@H]3[C@H](C)CC4=C(CCC(=O)C4)[C@H]3CC[C@@]21C` [TIBOLONE], the IC50 result in test [1], in test [2], in test [3], in test [4], in test [5] (cho-k1) and in test [6] was “Not Active” throughout. For the same compound, the IC50 result in test [7] was “Not Active”. Moreover, the Ki result in test [1] and in test [3] was “Not Active” each time.
Regarding `C[C@]12CCC(=O)C[C@@H]1CC[C@@H]1[C@@H]2CC[C@]2(C)[C@@H](O)CC[C@@H]12` [STANOLONE], the IC50 result in test [1], in test [2], in test [3], in test [4], in test [5] (cho-k1) and in test [6] was “Not Active” each time. The IC50 entry in test [7] was “Not Active”. Moreover, the Ki entry in test [1] and in test [3] was “Not Active” in each case.
`CC(C)(C)NC[C@H](O)COc1cccc2c1CCCC2=O` [LEVOBUNOLOL]: the IC50 result in test [1], in test [2], in test [3], in test [4], in test [5] (cho-k1) and in test [6] was “Not Active” in each case. For the same compound, the IC50 result in test [7] was “Not Active”. Further, the Ki result in test [1] and in test [3] was “Not Active” each time.
On to `CCN1CCCC1CNC(=O)c1cc(S(N)(=O)=O)ccc1OC` (stereo unspecified) [SULPIRIDE], for which the half-maximal inhibitory concentration (IC50) result in test [1], in test [2], in test [3], in test [4], in test [5] (cho-k1) and in test [6] was “Not Active” each time. The IC50 result in test [7] is listed as “Not Active”. In addition, the Ki entry in test [1] and in test [3] was “Not Active” each time.
For the compound `CCN(CC)C(=S)SSC(=S)N(CC)CC`, the IC50 result was “Not Active” in test [1]; “Not Active” in test [2]; “Not Active” in test [3]; “Not Active” in test [4]; 6.01 µM in test [5] (read-out: IC50); “Not Active” in test [6]. The IC50 entry in test [7] is listed as “Not Active”. Also, the values for the Ki entry in test [1], in test [3] and in test [5] (read-out: Ki) were “Not Active”, “Not Active” and 4.21 µM, respectively.
Take `OC[C@@H](O)[C@@H](O)[C@H](O)[C@H](O)CO` [MANNITOL]: the IC50 entry in test [1], in test [2], in test [3], in test [4], in test [5] (cho-k1) and in test [6] was “Not Active” each time. Besides, in test [7], the IC50 result is recorded as “Not Active”. The Ki entry in test [1] and in test [3] was “Not Active” in each case.
Regarding `C[N+]1(C)[C@@H]2C[C@@H](OC(=O)[C@H](CO)c3ccccc3)C[C@H]1[C@@H]1O[C@@H]12.[Br-]` [METHSCOPOLAMINE BROMIDE], the IC50 result in test [1], in test [2], in test [3], in test [4], in test [5] (cho-k1) and in test [6] was “Not Active” each time. Besides, the IC50 entry in test [7] was “Not Active”. The Ki entry in test [1] and in test [3] was “Not Active” each time.
For the compound `CCN(CC)CCNC(=O)c1cc(Cl)c(N)cc1OC` [METOCLOPRAMIDE], the IC50 result in test [1], in test [2], in test [3], in test [4], in test [5] (cho-k1) and in test [6] was “Not Active” in each case. Also, the IC50 entry in test [7] is recorded as “Not Active”. For the same compound, the Ki result in test [1] and in test [3] was “Not Active” each time.
`CC(=O)O[C@]1(C(C)=O)CC[C@H]2[C@@H]3C[C@H](C)C4=CC(=O)CC[C@]4(C)[C@H]3CC[C@@]21C` [MEDROXYPROGESTERONE ACETATE]: the half-maximal inhibitory concentration (IC50) result in test [1], in test [2], in test [3], in test [4], in test [5] (cho-k1) and in test [6] was “Not Active” in each case. Besides, in test [7], the IC50 result is “Not Active”. The Ki entry in test [1] and in test [3] was “Not Active” throughout.
`Cc1ccnc(NS(=O)(=O)c2ccc(N)cc2)n1` [SULFAMERAZINE]: the IC50 result in test [1], in test [2], in test [3], in test [4], in test [5] (cho-k1) and in test [6] was “Not Active” in each case. Besides, the IC50 entry in test [7] is “Not Active”. Also, the Ki result in test [1] and in test [3] was “Not Active” throughout.
Take `O=C(c1ccccc1)c1ccc2n1CCC2C(=O)O` (stereo unspecified) [KETOROLAC]: the IC50 result in test [1], in test [2], in test [3], in test [4], in test [5] (cho-k1) and in test [6] was “Not Active” each time. Besides, the IC50 result in test [7] was “Not Active”. Also, the Ki result in test [1] and in test [3] was “Not Active” each time.
For `Cc1nnc(NS(=O)(=O)c2ccc(N)cc2)s1` [SULFAMETHIZOLE], the IC50 entry in test [1], in test [2], in test [3], in test [4], in test [5] (cho-k1) and in test [6] was “Not Active” each time. In addition, the half-maximal inhibitory concentration (IC50) result in test [7] is given as “Not Active”. For the same compound, the Ki entry in test [1] and in test [3] was “Not Active” throughout.
As for `CCC(C)(C)C(=O)O[C@H]1C[C@@H](C)C=C2C=C[C@H](C)[C@H](CC[C@@H]3C[C@@H](O)CC(=O)O3)[C@H]21` [SIMVASTATIN], the IC50 entry in test [1], in test [2], in test [3], in test [4], in test [5] (cho-k1) and in test [6] was “Not Active” in each case. Moreover, in test [7], the IC50 result is given as “Not Active”. For the same compound, the Ki result in test [1] and in test [3] was “Not Active” throughout.
Regarding `Oc1ccc(/C=C/c2cc(O)cc(O)c2)cc1` [RESVERATROL], the IC50 entry in test [1], in test [2], in test [3], in test [4], in test [5] (cho-k1) and in test [6] was “Not Active” each time. For the same compound, the IC50 result in test [7] is “Not Active”. The Ki entry in test [1] and in test [3] was “Not Active” in each case.
Consider `Cc1cnc(NC(=O)C2=C(O)c3ccccc3S(=O)(=O)N2C)s1` [MELOXICAM], for which the IC50 entry in test [1], in test [2], in test [3], in test [4], in test [5] (cho-k1) and in test [6] was “Not Active” throughout. In test [7], the IC50 entry is listed as “Not Active”. Moreover, the Ki entry in test [1] and in test [3] was “Not Active” in each case.
Take `CNCCCC12CCC(c3ccccc31)c1ccccc12` [MAPROTILINE]: the IC50 result in test [2], in test [4], in test [5] (cho-k1), in test [6] and in test [7] was “Not Active” in each case.
`CN(C)CCC=C1c2ccccc2COc2ccccc21` [DOXEPIN]: the IC50 result in test [2], in test [4], in test [5] (cho-k1), in test [6] and in test [7] was “Not Active” in each case.
With `Cc1cc2c(s1)Nc1ccccc1N=C2N1CCN(C)CC1` [OLANZAPINE], the IC50 result in test [2], in test [4], in test [5] (cho-k1), in test [6] and in test [7] was “Not Active” throughout.
